Measurements published in patent publication US20230085307A1, “PYRIDAZINONE COMPOUND AND HERBICIDE” (NISSAN CHEMICAL CORPORATION, priority 2019, published 2023).

These molecules were tested on lambsquarters (assay: Test Example 5: herbicidal effect by foliage application, plastic box (Table 20, symbol O)). Details: 320 g/ha, foliage application after 14-day growth, evaluated three weeks after application.
Assay type: in vivo, lambsquarters (Chenopodium album)
In short: (§1)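 Post-emergence foliar test in sterilized diluvial soil. Compound applied as water-diluted emulsion at a predetermined rate to 14-day-old plants; evaluation at three weeks.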

Row | Structure (SMILES) | herbicidal effect on O: lambsquarters (evaluation grade 0-5)
1 | CCCC(=O)Oc1c(C)nn(C)c(=O)c1-c1c(-c2ccc(Cl)cc2)sc2c(F)cccc12 [4-041] | 3 (Herbicidal rate of 40% or more and less than 70%)

The molecules below were run on oval-leafed pondweed (assay: Test Example 2: herbicidal activity, application during weed generation under submerged conditions (Table 17, symbol C)). Details: AAH 320 g/ha; application during weed generation, submerged conditions.
Assay type: in vivo, oval-leafed pondweed (Monochoria vaginalis)
In short: (§2)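 Alluvial soil in Wagner pots was flooded to 4 cm depth and sown with the three weeds together; pots were kept in a greenhouse at 25° C. to 30° C. At the one to two leaf stage, an emulsion formulation diluted in water to a set rate went onto the water surface; scored three weeks later.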

Row | Structure (SMILES) | herbicidal effect rating, C: oval-leafed pondweed
2 | CCCC(=O)Oc1c(C)nn(C)c(=O)c1-c1c(-c2ccc(Cl)cc2)sc2c(F)cccc12 [4-041] | 0 (Herbicidal rate of 5% or less (almost no effect))

The molecules below were run on velvetleaf (assay: Test Example 5: herbicidal effect by foliage application, plastic box (Table 20, symbol M)). Details: 320 g/ha, foliage application after 14-day growth, evaluated three weeks after application.
Assay type: in vivo, velvetleaf (Abutilon theophrasti)
In short: as §1

Row | Structure (SMILES) | herbicidal effect on M: velvetleaf (evaluation grade 0-5)
3 | CCCC(=O)Oc1c(C)nn(C)c(=O)c1-c1c(-c2ccc(Cl)cc2)sc2c(F)cccc12 [4-041] | 5 (Herbicidal rate of 90% or more (almost completely withered))

These molecules were tested on Italian ryegrass (assay: Test Example 5: herbicidal effect by foliage application, plastic box (Table 20, symbol K)). Details: 320 g/ha, foliage application after 14-day growth, evaluated three weeks after application.
Assay type: in vivo, Italian ryegrass (Lolium multiflorum)
In short: as §1

Row | Structure (SMILES) | herbicidal effect on K: Italian ryegrass (evaluation grade 0-5)
4 | CCCC(=O)Oc1c(C)nn(C)c(=O)c1-c1c(-c2ccc(Cl)cc2)sc2c(F)cccc12 [4-041] | 3 (Herbicidal rate of 40% or more and less than 70%)

These molecules were tested on Japanese bulrush (assay: Test Example 1: herbicidal activity, application before weed generation under submerged conditions (Table 16, symbol B)). Details: amount of applied herbicide 320 g/ha.
Assay type: in vivo, Japanese bulrush (Schoenoplectus juncoides)
In short: (§3)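 Submerged Wagner pots (alluvial soil, 4 cm water) sown with weed seeds and planted with 2.5-leaf rice seedlings; emulsifiable concentrate diluted in water applied to water surface on sowing day. Held in greenhouse at 25-30 °C; injury scored 0-5 by herbicidal rate after three weeks.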

Row | Structure (SMILES) | Herbicidal effect, B: Japanese bulrush
5 | CCCC(=O)Oc1c(C)nn(C)c(=O)c1-c1c(-c2ccc(Cl)cc2)sc2c(F)cccc12 [4-041] | 0 (Herbicidal rate of 5% or less (almost no effect))

The molecules below were run on late watergrass (assay: Test Example 1: herbicidal activity, application before weed generation under submerged conditions (Table 16, symbol A)). Details: amount of applied herbicide 320 g/ha.
Assay type: in vivo, late watergrass (Echinochloa oryzicola)
In short: as §3

Row | Structure (SMILES) | Herbicidal effect, A: late watergrass
6 | CCCC(=O)Oc1c(C)nn(C)c(=O)c1-c1c(-c2ccc(Cl)cc2)sc2c(F)cccc12 [4-041] | 3 (Herbicidal rate of 40% or more and less than 70%)

The molecules below were run on rice flat sedge (assay: Test Example 3: herbicidal effect by foliage application, Wagner pot (Table 18, symbol E)). Details: 320 g/ha.
Assay type: in vivo, rice flat sedge (Cyperus iria)
In short: (§4)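 Plants were sown in alluvial soil held under 0.1–0.5 cm standing water and grown 14 days in a greenhouse at 25–30 °C. An emulsifiable formulation, water-diluted to the set dose, was then sprayed onto the foliage, and effects were scored three weeks later using previously defined criteria.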

Row | Structure (SMILES) | herbicidal effect on rice flat sedge (E)
7 | CCCC(=O)Oc1c(C)nn(C)c(=O)c1-c1c(-c2ccc(Cl)cc2)sc2c(F)cccc12 [4-041] | 5 (Herbicidal rate of 90% or more (almost completely withered))

What follows are molecules tested on barnyard grass (assay: Test Example 3: herbicidal effect by foliage application, Wagner pot (Table 18, symbol H)). Details: 320 g/ha.
Assay type: in vivo, barnyard grass (Echinochloa crus-galli)
In short: as §4

Row | Structure (SMILES) | herbicidal effect on barnyard grass (H)
8 | CCCC(=O)Oc1c(C)nn(C)c(=O)c1-c1c(-c2ccc(Cl)cc2)sc2c(F)cccc12 [4-041] | 5 (Herbicidal rate of 90% or more (almost completely withered))

These molecules were tested on chickweed (assay: Test Example 5: herbicidal effect by foliage application, plastic box (Table 20, symbol P)). Details: 320 g/ha, foliage application after 14-day growth, evaluated three weeks after application.
Assay type: in vivo, common chickweed (Stellaria media)
In short: as §1

Row | Structure (SMILES) | herbicidal effect on P: chickweed (evaluation grade 0-5)
9 | CCCC(=O)Oc1c(C)nn(C)c(=O)c1-c1c(-c2ccc(Cl)cc2)sc2c(F)cccc12 [4-041] | 5 (Herbicidal rate of 90% or more (almost completely withered))

These molecules were tested on windgrass (assay: Test Example 5: herbicidal effect by foliage application, plastic box (Table 20, symbol L)). Details: 320 g/ha, foliage application after 14-day growth, evaluated three weeks after application.
Assay type: in vivo, windgrass (Apera spica-venti)
In short: as §1

Row | Structure (SMILES) | herbicidal effect on L: windgrass (evaluation grade 0-5)
10 | CCCC(=O)Oc1c(C)nn(C)c(=O)c1-c1c(-c2ccc(Cl)cc2)sc2c(F)cccc12 [4-041] | 4 (Herbicidal rate of 70% or more and less than 90%)

Each molecule was assayed on southern crabgrass (assay: Test Example 5: herbicidal effect by foliage application, plastic box (Table 20, symbol F)). Details: 320 g/ha, foliage application after 14-day growth, evaluated three weeks after application.
Assay type: in vivo, southern crabgrass (Digitaria ciliaris)
In short: as §1

Row | Structure (SMILES) | herbicidal effect on F: southern crabgrass (evaluation grade 0-5)
11 | CCCC(=O)Oc1c(C)nn(C)c(=O)c1-c1c(-c2ccc(Cl)cc2)sc2c(F)cccc12 [4-041] | 0 (Herbicidal rate of 5% or less (almost no effect))

Each molecule was assayed on barnyard grass (assay: Test Example 5: herbicidal effect by foliage application, plastic box (Table 20, symbol H)). Details: 320 g/ha, foliage application after 14-day growth, evaluated three weeks after application.
Assay type: in vivo, barnyard grass (Echinochloa crus-galli)
In short: as §1

Row | Structure (SMILES) | herbicidal effect on H: barnyard grass (evaluation grade 0-5)
12 | CCCC(=O)Oc1c(C)nn(C)c(=O)c1-c1c(-c2ccc(Cl)cc2)sc2c(F)cccc12 [4-041] | 4 (Herbicidal rate of 70% or more and less than 90%)

These molecules were tested on redroot pigweed (assay: Test Example 5: herbicidal effect by foliage application, plastic box (Table 20, symbol N)). Details: 320 g/ha, foliage application after 14-day growth, evaluated three weeks after application.
Assay type: in vivo, redroot pigweed (Amaranthus retroflexus)
In short: as §1

Row | Structure (SMILES) | herbicidal effect on N: redroot pigweed (evaluation grade 0-5)
13 | CCCC(=O)Oc1c(C)nn(C)c(=O)c1-c1c(-c2ccc(Cl)cc2)sc2c(F)cccc12 [4-041] | 5 (Herbicidal rate of 90% or more (almost completely withered))

The molecules below were run on late watergrass (assay: Test Example 2: herbicidal activity, application during weed generation under submerged conditions (Table 17, symbol A)). Details: AAH 320 g/ha; application during weed generation, submerged conditions.
Assay type: in vivo, late watergrass (Echinochloa oryzicola)
In short: as §2

Row | Structure (SMILES) | herbicidal effect rating, A: late watergrass
14 | CCCC(=O)Oc1c(C)nn(C)c(=O)c1-c1c(-c2ccc(Cl)cc2)sc2c(F)cccc12 [4-041] | 0 (Herbicidal rate of 5% or less (almost no effect))

What follows are molecules tested on Chinese sprangletop (assay: Test Example 3: herbicidal effect by foliage application, Wagner pot (Table 18, symbol D)). Details: 320 g/ha.
Assay type: in vivo, chinese sprangletop (Leptochloa chinensis)
In short: as §4

Row | Structure (SMILES) | herbicidal effect on Chinese sprangletop (D)
15 | CCCC(=O)Oc1c(C)nn(C)c(=O)c1-c1c(-c2ccc(Cl)cc2)sc2c(F)cccc12 [4-041] | 4 (Herbicidal rate of 70% or more and less than 90%)

Each molecule was assayed on blackgrass (assay: Test Example 5: herbicidal effect by foliage application, plastic box (Table 20, symbol J)). Details: 320 g/ha, foliage application after 14-day growth, evaluated three weeks after application.
Assay type: in vivo, blackgrass (Alopecurus myosuroides)
In short: as §1

Row | Structure (SMILES) | herbicidal effect on J: blackgrass (evaluation grade 0-5)
16 | CCCC(=O)Oc1c(C)nn(C)c(=O)c1-c1c(-c2ccc(Cl)cc2)sc2c(F)cccc12 [4-041] | 1 (Herbicidal rate of 5% or more and less than 20%)

These molecules were tested on Japanese bulrush (assay: Test Example 2: herbicidal activity, application during weed generation under submerged conditions (Table 17, symbol B)). Details: AAH 320 g/ha; application during weed generation, submerged conditions.
Assay type: in vivo, Japanese bulrush (Schoenoplectus juncoides)
In short: as §2

Row | Structure (SMILES) | herbicidal effect rating, B: Japanese bulrush
17 | CCCC(=O)Oc1c(C)nn(C)c(=O)c1-c1c(-c2ccc(Cl)cc2)sc2c(F)cccc12 [4-041] | 3 (Herbicidal rate of 40% or more and less than 70%)

These molecules were tested on oval-leafed pondweed (assay: Test Example 1: herbicidal activity, application before weed generation under submerged conditions (Table 16, symbol C)). Details: amount of applied herbicide 320 g/ha.
Assay type: in vivo, oval-leafed pondweed (Monochoria vaginalis)
In short: as §3

Row | Structure (SMILES) | Herbicidal effect, C: oval-leafed pondweed
18 | CCCC(=O)Oc1c(C)nn(C)c(=O)c1-c1c(-c2ccc(Cl)cc2)sc2c(F)cccc12 [4-041] | 0 (Herbicidal rate of 5% or less (almost no effect))

What follows are molecules tested on green foxtail (assay: Test Example 5: herbicidal effect by foliage application, plastic box (Table 20, symbol G)). Details: 320 g/ha, foliage application after 14-day growth, evaluated three weeks after application.
Assay type: in vivo, green foxtail (Setaria viridis)
In short: as §1

Row | Structure (SMILES) | herbicidal effect on G: green foxtail (evaluation grade 0-5)
19 | CCCC(=O)Oc1c(C)nn(C)c(=O)c1-c1c(-c2ccc(Cl)cc2)sc2c(F)cccc12 [4-041] | 3 (Herbicidal rate of 40% or more and less than 70%)

The molecules below were run on persian speedwell (assay: Test Example 5: herbicidal effect by foliage application, plastic box (Table 20, symbol R)). Details: 320 g/ha, foliage application after 14-day growth, evaluated three weeks after application.
Assay type: in vivo, Persian speedwell (Veronica persica)
In short: as §1

Row | Structure (SMILES) | herbicidal effect on R: persian speedwell (evaluation grade 0-5)
20 | CCCC(=O)Oc1c(C)nn(C)c(=O)c1-c1c(-c2ccc(Cl)cc2)sc2c(F)cccc12 [4-041] | 5 (Herbicidal rate of 90% or more (almost completely withered))

What follows are molecules tested on wild oat (assay: Test Example 5: herbicidal effect by foliage application, plastic box (Table 20, symbol I)). Details: 320 g/ha, foliage application after 14-day growth, evaluated three weeks after application.
Assay type: in vivo, wild oat (Avena fatua)
In short: as §1

Row | Structure (SMILES) | herbicidal effect on I: wild oat (evaluation grade 0-5)
21 | CCCC(=O)Oc1c(C)nn(C)c(=O)c1-c1c(-c2ccc(Cl)cc2)sc2c(F)cccc12 [4-041] | 3 (Herbicidal rate of 40% or more and less than 70%)
